Patent US9540397B2, “BACE1 inhibitors” (Hoffmann-La Roche Inc., priority 2014, dated 2017)

Experiments:
[1] = system: Aβ40 in brain of wild-type mice; test: Lowering of Aβ40 in brain of wild-type mice; assay type: in vivo; details: Mus musculus, po; female C57Bl/6J mice, 30 mg/kg per os, 4 h; brain Aβ40 related to the value in the vehicle group; read-out: Aβ40 (wt mice, brain)
Procedure: Lowering of Aβ40 in Brain of Wild-Type Mice:
Animals and Housing Conditions.
Animals were maintained in a 12/12 h light/dark cycle, with lights starting at 6 a.m., and experiments were conducted during the light phase. Animal housing and experimental procedures were in line with ethical and legal guidelines and were authorized by local veterinary authorities.
Experiment. Female C57Bl/6J mice were treated with a dose of 30 mg/kg of the compounds, 3-4 animals per treatment group. The test compound was dissolved in 5% EtOH, 10% Solutol, and was applied per os at 10 mL/kg. After 4 h, the animals were sacrificed and brain and plasma were collected. The brain was cut into halves and immediately frozen on dry ice. Brain was used for measurement of Aβ40 and plasma was used for determination of compound exposure. […] Brain tissue was homogenized in 2% DEA buffer in a Roche MagnaLyser (20″, 4000 rpm) and subsequently centrifuged for 1 h at 100000 g. DEA was reduced to 0.2% in 50 mM NaCl and one-half of the DEA lysate was passed over an Oasis Solid phase extraction plate (Waters; cat. no. 186000679), which had been activated with MeOH and equilibrated in dH2O (1 mL each). After washes in 10% and 30% MeOH (1 mL each), the Aβ-peptides were eluted in 0.8 mL of 2% NH4OH in 90% MeOH. The eluate was dried over a N2 flow, and the dried sample was reconstituted in 30 μL of AlphaLISA assay buffer. Aβ40 was determined by an AlphaLISA assay (Perkin-Elmer). In a white 96-well, half area microplate (Perkin-Elmer cat. no. 6005561), 20 μL of the reconstituted sample were mixed with 5 μL of biotinylated BAP-24 (specific for C-terminus of Aβ40) (Brockhaus, M.; Grunberg, J.; Rohrig, S.; Loetscher, H.; Wittenburg, N.; Baumeister, R.; Jacobsen, H.; Haass, C. Caspasemediated cleavage is not required for the activity of presenilins in amyloidogenesis and NOTCH signaling. NeuroReport 1998, 9, 1481-1486.) stock=4.4 mg/mL, f.c.5.5 μg/mL), and 5 μL 252Q6 acceptor beads (252Q6 antibody, Invitrogen AMB0062) had been previously conjugated with AlphaLISA Acceptor beads (Perkin-Elmer cat. no. 6772002); final dilution 1:500). The mix was incubated for 1 h at RT in the dark. Then 20 μL of Streptavin-coated Donor Beads (Perkin-Elmer cat. no. 6760002, final dilution 1:125) were added and this final mix was incubated in the dark for another 30 min at RT before RFU was measured in an AlphaScreen Reader (Perkin-Elmer Envision 2104). The value obtained for Aβ40 in the treated animals was related to the value in the vehicle group and is given in %. Alternatively a commercial ELISA was used for Aβ40 determination (Wako ELISA: (“Human/Rat β Amyloid (40) ELISA kit Wako II”; cat nr. 294-64701) following the manufacture's instruction. Also here the Aβ-lowering efficacy was calculated as percentage of the vehicle group.

BACE1 = molecular target: T1, BACE1 (Homo sapiens, UniProt P56817); test: Cellular Aβ-lowering assay (Abeta 40 AlphaLISA, HEK293 APP cells); assay type: cell-based; details: 18-20 hrs incubation, Aβ40 in culture supernatant, read-out: BACE1 cell act. Aβ40 IC50
T1 construct: endogenous in cells; host or cells: HEK293 APP cells
Procedure: Cellular Aβ-lowering assay:
The Abeta 40 AlphaLISA Assay can be used. The HEK293 APP cells were seeded in 96 well Microtiter plates in cell culture medium (Iscove's, plus 10% (v/v) fetal bovine serum, penicillin/streptomycin) to about 80% confluency and the compounds were added at a 3× concentration in ⅓ volume of culture medium (final DMSO concentration was kept at 1% v/v). After 18-20 hrs incubation at 37° C. and 5% CO2 in a humidified incubator, the culture supernatants were harvested for the determination of AP 40 concentrations using Perkin-Elmer Human Amyloid beta 1-40 (high specificity) Kit (Cat#AL275C).
In a Perkin-Elmer White Optiplate-384 (Cat#6007290), 2 ul culture supernatants were combined with 2 μl of a 10× AlphaLISA Anti-hAβ Acceptor beads+Biotinylated Antibody Anti-Aβ 1-40 Mix ([…]/5 nM). After 1 hour room temperature incubation, 16 μl of a 1.25× preparation of Streptavidin (SA) Donor beads (25 μg/mL) were added and incubated for 30 minutes in the Dark. Light Emission at 615 nm was then recorded using EnVision-Alpha Reader. Levels of Aβ 40 in the culture supernatants were calculated as percentage of maximum signal (cells treated with 1% DMSO without inhibitor). The IC50 values were calculated using the Excel XLfit software.

T1 sequence (P56817 46-501): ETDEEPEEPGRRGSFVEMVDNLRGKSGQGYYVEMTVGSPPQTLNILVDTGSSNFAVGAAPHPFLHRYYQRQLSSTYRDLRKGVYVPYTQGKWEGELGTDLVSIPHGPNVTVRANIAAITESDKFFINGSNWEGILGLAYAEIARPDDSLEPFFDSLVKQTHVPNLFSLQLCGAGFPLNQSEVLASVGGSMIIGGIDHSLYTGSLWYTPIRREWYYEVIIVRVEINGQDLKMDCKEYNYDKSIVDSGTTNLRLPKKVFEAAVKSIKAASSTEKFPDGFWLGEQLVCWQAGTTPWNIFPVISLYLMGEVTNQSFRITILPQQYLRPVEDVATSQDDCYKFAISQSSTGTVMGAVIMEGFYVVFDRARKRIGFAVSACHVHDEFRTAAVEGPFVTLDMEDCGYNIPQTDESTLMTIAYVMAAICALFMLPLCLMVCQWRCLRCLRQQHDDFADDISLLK

| SMILES | IC50 (BACE1) [nM] | response vs control in vivo at 30 mg/kg [1] [%] |
| --- | --- | --- |
| CC1(C)C(N)=N[C@](C)(c2nc(NC(=O)c3ccc(F)cn3)ccc2F)[C@@H]2CCN=[S@@]21=O [Example 27AB, N-(6-((3aS,4R,8R)-6-amino-4,7,7-trimethyl-8-oxido-3,3a,4,7-tetrahydro-2H-isothiazolo[1,5-a][1,4]thiazin-4-yl)-5-fluoropyridin-2-yl)-5-fluoropicolinamide] | 15 | 92 |
| COc1cnc(C(=O)Nc2ccc(F)c([C@@]3(C)N=C(N)C(C)(C)[S@@]4(=O)=NCCC[C@@H]34)n2)cn1 [Example 2AB, N-(6-((4aS,5R,9R)-7-amino-5,8,8-trimethyl-9-oxido-2,3,4,4a,5,8-hexahydro-[1,4]thiazino[2,1-f][1,2]thiazin-5-yl)-5-fluoropyridin-2-yl)-5-methoxypyrazine-2-carboxamide] | 18.7 | 92 |
| CC1(C)C(N)=N[C@](C)(c2nc(NC(=O)c3ccc(OCC(F)(F)C(F)F)cn3)ccc2F)[C@H]2CCCN=[S@@]21=O [Example 8AA, N-(6-((4aR,5R,9R)-7-amino-5,8,8-trimethyl-9-oxido-2,3,4,4a,5,8-hexahydro-[1,4]thiazino[2,1-f][1,2]thiazin-5-yl)-5-fluoropyridin-2-yl)-5-(2,2,3,3-tetrafluoropropoxy)picolinamide] | 35.4 | 61 |
| CC1(C)C(N)=N[C@](C)(c2nc(NC(=O)c3ccc(OC(F)F)cn3)ccc2F)[C@H]2CCCN=[S@@]21=O [Example 7AA, N-(6-((4aR,5R,9R)-7-amino-5,8,8-trimethyl-9-oxido-2,3,4,4a,5,8-hexahydro-[1,4]thiazino[2,1-f][1,2]thiazin-5-yl)-5-fluoropyridin-2-yl)-5-(difluoromethoxy)picolinamide] | 2.7 | 65 |
| CC1(C)C(N)=N[C@](C)(c2nc(NC(=O)c3ccc(OC(F)F)cn3)ccc2F)[C@@H]2CCN=[S@@]21=O [Example 14AB, N-(6-((3aS,4R,8R)-6-amino-4,7,7-trimethyl-8-oxido-3,3a,4,7-tetrahydro-2H-isothiazolo[1,5-a][1,4]thiazin-4-yl)-5-fluoropyridin-2-yl)-5-(difluoromethoxy)picolinamide] | 6.3 | 61 |
| CC1(C)C(N)=N[C@](C)(c2nc(NC(=O)c3ccc(OCC(F)(F)C(F)F)cn3)ccc2F)[C@@H]2CCN=[S@@]21=O [Example 15AB, N-(6-((3aS,4R,8R)-6-amino-4,7,7-trimethyl-8-oxido-3,3a,4,7-tetrahydro-2H-isothiazolo[1,5-a][1,4]thiazin-4-yl)-5-fluoropyridin-2-yl)-5-(2,2,3,3-tetrafluoropropoxy)picolinamide] | 146 | 100 |
| CC1(C)C(N)=N[C@](C)(c2nc(NC(=O)c3ncc(Cl)cc3Cl)ccc2F)[C@H]2CCCN=[S@@]21=O [Example 3AA, N-(6-((4aR,5R,9R)-7-amino-5,8,8-trimethyl-9-oxido-2,3,4,4a,5,8-hexahydro-[1,4]thiazino[2,1-f][1,2]thiazin-5-yl)-5-fluoropyridin-2-yl)-3,5-dichloropicolinamide] | 1.3 | 76 |
| CC1(C)C(N)=N[C@](C)(c2nc(NC(=O)c3cnc(OC(F)F)cn3)ccc2F)[C@@H]2CCN=[S@@]21=O [Example 26AB, N-(6-((3aS,4R,8R)-6-amino-4,7,7-trimethyl-8-oxido-3,3a,4,7-tetrahydro-2H-isothiazolo[1,5-a][1,4]thiazin-4-yl)-5-fluoropyridin-2-yl)-5-(difluoromethoxy)pyrazine-2-carboxamide] | 7.7 | 82 |

Further lines, with some results ahead:

| IC50 (BACE1) [nM] | SMILES | response vs control in vivo at 30 mg/kg [1] [%] |
| --- | --- | --- |
| 19.4 | Cc1cc(Cl)cnc1C(=O)Nc1ccc(F)c([C@@]2(C)N=C(N)C(C)(C)[S@@]3(=O)=NCC(F)(F)C[C@H]23)n1 [Example 42AA, N-(6-((4aR,5R,9R)-7-amino-3,3-difluoro-5,8,8-trimethyl-9-oxido-2,3,4,4a,5,8-hexahydro-[1,4]thiazino[2,1-f][1,2]thiazin-5-yl)-5-fluoropyridin-2-yl)-5-chloro-3-methylpicolinamide] | 85 |
| 0.6 | Cc1cc(C#N)cnc1C(=O)Nc1ccc(F)c([C@@]2(C)N=C(N)C(C)(C)[S@@]3(=O)=NCC[C@@H]23)n1 [Example 9AB, N-(6-((3aS,4R,8R)-6-amino-4,7,7-trimethyl-8-oxido-3,3a,4,7-tetrahydro-2H-isothiazolo[1,5-a][1,4]thiazin-4-yl)-5-fluoropyridin-2-yl)-5-cyano-3-methylpicolinamide] | 40 |
| 0.3 | Cc1cc(C#N)cnc1C(=O)Nc1ccc(F)c([C@@]2(C)N=C(N)C(C)(C)[S@@]3(=O)=NCC4(CC4)C[C@H]23)n1 [Example 48AA, N-(6-((4aR,5R,9R)-7-amino-5,8,8-trimethyl-9-oxido-4,4a,5,8-tetrahydro-2H-spiro[[1,4]thiazino[2,1-f][1,2]thiazine-3,1′-cyclopropan]-5-yl)-5-fluoropyridin-2-yl)-5-cyano-3-methylpicolinamide] | 61 |
| 18.1 | Cc1cc(F)cnc1C(=O)Nc1ccc(F)c([C@@]2(C)N=C(N)C(C)(C)[S@@]3(=O)=NCCC[C@H]23)n1 [Example 4AA, N-(6-((4aR,5R,9R)-7-amino-5,8,8-trimethyl-9-oxido-2,3,4,4a,5,8-hexahydro-[1,4]thiazino[2,1-f][1,2]thiazin-5-yl)-5-fluoropyridin-2-yl)-5-fluoro-3-methylpicolinamide] | 80 |
| 0.5 | CC1(C)C(N)=N[C@](C)(c2nc(NC(=O)c3ncc(C#N)cc3Cl)ccc2F)[C@@H]2CCN=[S@@]21=O [Example 25AB, N-(6-((3aS,4R,8R)-6-amino-4,7,7-trimethyl-8-oxido-3,3a,4,7-tetrahydro-2H-isothiazolo[1,5-a][1,4]thiazin-4-yl)-5-fluoropyridin-2-yl)-3-chloro-5-cyanopicolinamide] | 56 |
| 0.1 | CC1(C)C(N)=N[C@](C)(c2nc(NC(=O)c3ncc(C#N)cc3Cl)ccc2F)[C@H]2CC3(CC3)CN=[S@@]21=O [Example 49AA, N-(6-((4aR,5R,9R)-7-amino-5,8,8-trimethyl-9-oxido-4,4a,5,8-tetrahydro-2H-spiro[[1,4]-thiazino[2,1-f][1,2]thiazine-3,1′-cyclopropan]-5-yl)-5-fluoropyridin-2-yl)-3-chloro-5-cyanopicolinamide] | 106 |
| 0.5 | Cc1cc(C#N)cnc1C(=O)Nc1ccc(F)c([C@@]2(C)N=C(N)C(C)(C)[S@]3(=O)=NCCC[C@H]23)n1 [Example 1BA, N-(6-((4aR,5R,9S)-7-amino-5,8,8-trimethyl-9-oxido-2,3,4,4a,5,8-hexahydro-[1,4]thiazino[2,1-f][1,2]thiazin-5-yl)-5-fluoropyridin-2-yl)-5-cyano-3-methylpicolinamide] | 95 |
